What all share (format): cell-based
In experiment [1] the test system is 15-PGDH luciferase fusion construct in V9m reporter cell line. The experiment in a line: 15-PGDH-luciferase fusion gene reporter induction, V9m cells. As to conditions: read-out: V9M reporter activity ([…]), […].
Experiment [2] has as its system 15-PGDH luciferase fusion construct in LS174T reporter cell line. Briefly: 15-PGDH-luciferase fusion gene reporter induction, LS174T cells. The settings on record: Homo sapiens.
Experiment [3] relates to 15-PGDH luciferase fusion construct in Vaco503 reporter cell line. The experiment in a line: 15-PGDH-luciferase fusion gene reporter induction, V503 cells. As to conditions: read-out: V503 reporter activity ([…]), […].
Setting [4] is: % increased luciferase activity over basal level, 100 = doubling, read-out: V9M reporter activity (2.5 uM).
Setting [5] is: % increased luciferase activity over basal level, 100 = doubling, read-out: V9M reporter activity (7.5 uM).
Where [6] appears, read: read-out: LS174T reporter activity ([…]), […], % increased luciferase activity over basal level, read-out: LS174T reporter activity (2.5 uM).
Setting [7] is: read-out: LS174T reporter activity ([…]), […], % increased luciferase activity over basal level, read-out: LS174T reporter activity (7.5 uM).
The mark [8] stands for this setting: % increased luciferase activity over basal level, read-out: V503 reporter activity (2.5 uM).
Where [9] appears, read: % increased luciferase activity over basal level, read-out: V503 reporter activity (7.5 uM).
Where [10] appears, read: % induction of luciferase activity over basal level, Table 17, read-out: V9M reporter activity (2.5 μM).
Setting [11] is: % induction over basal level, Table 17, read-out: V9M reporter activity (7.5 μM).
Setting [12] is: read-out: LS174T reporter activity ([…]), […], % induction over basal level, Table 17, read-out: LS174T reporter activity (2.5 μM).
[13] abbreviates: read-out: lS174T reporter activity ([…]), […], % induction over basal level, Table 17, read-out: lS174T reporter activity (7.5 μM).
Where [14] appears, read: % induction over basal level, Table 17, read-out: V503 reporter activity (2.5 μM).
The mark [15] stands for this setting: % induction over basal level, Table 17, read-out: V503 reporter activity (7.5 μM).

Read-outs that look alike come from different tables or passages of the source.

For `CCCCC[S+]([O-])c1sc2nc(-c3cccs3)cc(-c3ccccc3)c2c1N` (stereo not drawn) [SW208080, 2-(pentylsulfinyl)-4-phenyl-6-(thiophen-2-yl)thieno[2,3-b]pyridin-3-amine], the activation at […] came out at 102% in experiment [1] (setting [4]); 98.7% in experiment [1] (setting [5]); 118% in experiment [2] (setting [6]); 117% in experiment [2] (setting [7]); 104% in experiment [3] (setting [8]); 127% in experiment [3] (setting [9]).
For the compound `CCCCCC[S+]([O-])c1sc2nc(-c3cccs3)cc(-c3ccccc3)c2c1N` (stereo not drawn) [SW208081, 2-(hexylsulfinyl)-4-phenyl-6-(thiophen-2-yl)thieno[2,3-b]pyridin-3-amine], the activation at […] in experiment [1] (setting [4]) is 37.8%; in experiment [1] (setting [5]), 63.6%; in experiment [2] (setting [6]) it was 64.5%; in experiment [2] (setting [7]), 95.1%; in experiment [3] (setting [8]) it was 90.5%; in experiment [3] (setting [9]), 105%.
Take `COc1ccc(N(CC(=O)N/N=C/c2cccnc2)S(=O)(=O)c2ccccc2)c(OC)c1` [compound 396087]: the activation at […] in experiment [1] (setting [10]) is -8.51%; in experiment [1] (setting [11]), 10.1%; in experiment [2] (setting [12]) it was 4.37%; in experiment [2] (setting [13]) it was 10.2%; in experiment [3] (setting [14]) it was 17.2%; in experiment [3] (setting [15]), 30.8%.
As to `CCOC(=O)c1sc2nc(-c3ccccc3)cc(-c3ccccc3)c2c1N` [compound 405320], the activation at […] in experiment [1] (setting [4]) was 8.77%; in experiment [1] (setting [5]), -15.4%; in experiment [2] (setting [6]), 9.95%; in experiment [2] (setting [7]) it was -2.57%; in experiment [3] (setting [8]), -7.73%; in experiment [3] (setting [9]), -33.7%.
For the compound `CCc1ccccc1NC(=O)CN(c1ccc(OC)cc1OC)S(=O)(=O)c1ccccc1` [compound 407572], the activation at […] in experiment [1] (setting [10]) is -8.45%; in experiment [1] (setting [11]) it was -6.12%; in experiment [2] (setting [12]), 2.22%; in experiment [2] (setting [13]), 6.94%; in experiment [3] (setting [14]) it was 17.2%; in experiment [3] (setting [15]) it was 35.9%.
As for `COc1ccc(N(CC(=O)Nc2cccc(Cl)c2)S(=O)(=O)c2ccc(OC)c(OC)c2)cc1` [compound 408961], the activation at […] was -12.4% in experiment [1] (setting [10]); 0.56% in experiment [1] (setting [11]); 2.46% in experiment [2] (setting [12]); -4.51% in experiment [2] (setting [13]); 11.7% in experiment [3] (setting [14]); 17.6% in experiment [3] (setting [15]).
In the case of `CCOC(=O)c1sc2nc(-c3cccs3)cc(-c3ccc(F)cc3)c2c1N` [compound 413423], the activation at […] in experiment [1] (setting [4]) is -5.65%; in experiment [1] (setting [5]) it was -8.76%; in experiment [2] (setting [6]), 3.41%; in experiment [2] (setting [7]), 3.91%; in experiment [3] (setting [8]) it was 7.89%; in experiment [3] (setting [9]) it was 3.13%.
With `O=C(CN(c1ccc(F)cc1)S(=O)(=O)c1ccccc1)Nc1cccnc1` [compound 414177], the activation at […] in experiment [1] (setting [10]) was 10.6%; in experiment [1] (setting [11]), 7.72%; in experiment [2] (setting [12]), 9.51%; in experiment [2] (setting [13]), -0.62%; in experiment [3] (setting [14]) it was -2.8%; in experiment [3] (setting [15]) it was -5.73%.
Take `O=C(CN(c1ccccc1)S(=O)(=O)c1ccccc1)Nc1ccccn1` [compound 414183]: the activation at […] in experiment [1] (setting [10]) was -9.15%; in experiment [1] (setting [11]) it was -3.89%; in experiment [2] (setting [12]) it was 5.35%; in experiment [2] (setting [13]), -4.77%; in experiment [3] (setting [14]), 11.5%; in experiment [3] (setting [15]) it was 37.2%.
Turning to `COc1ccc(OC)c(NC(=O)CN(c2ccc([N+](=O)[O-])cc2)S(=O)(=O)c2ccccc2)c1` [compound 414195], the activation at […] in experiment [1] (setting [10]) is -13.9%; in experiment [1] (setting [11]), -16.8%; in experiment [2] (setting [12]) it was -1.15%; in experiment [2] (setting [13]) it was 2.34%; in experiment [3] (setting [14]), 13.1%; in experiment [3] (setting [15]), 19.5%.
For `COc1ccc(S(=O)(=O)N(CC(=O)Nc2ccccc2)c2ccccc2)cc1` [compound 474738], the activation at […] in experiment [1] (setting [10]) was -7.27%; in experiment [1] (setting [11]), 3.48%; in experiment [2] (setting [12]) it was -0.36%; in experiment [2] (setting [13]), 3.5%; in experiment [3] (setting [14]), 17%; in experiment [3] (setting [15]) it was 24.6%.
For the compound `COc1ccc(NC(=O)CN(c2ccccc2)S(=O)(=O)c2ccccc2)cc1` [compound 474759], the activation at […] in experiment [1] (setting [10]) is 2.58%; in experiment [1] (setting [11]), 6.4%; in experiment [2] (setting [12]), 5.54%; in experiment [2] (setting [13]) it was -0.03%; in experiment [3] (setting [14]) it was -5.04%; in experiment [3] (setting [15]), -12.7%.
Take `COc1ccc(OC)c(N(CC(=O)Nc2ccccc2F)S(=O)(=O)c2ccccc2)c1` [compound 503270]: the activation at […] in experiment [1] (setting [10]) is -4.47%; in experiment [1] (setting [11]) it was 24.1%; in experiment [2] (setting [12]), 12.3%; in experiment [2] (setting [13]), 32.8%; in experiment [3] (setting [14]), 29.9%; in experiment [3] (setting [15]) it was 42.1%.
Take `COc1ccccc1N(CC(=O)Nc1ccc(F)c(Cl)c1)S(=O)(=O)c1ccccc1` [compound 537833]: the activation at […] in experiment [1] (setting [10]) was -7.54%; in experiment [1] (setting [11]), -7.44%; in experiment [2] (setting [12]) it was 4.94%; in experiment [2] (setting [13]), 9.04%; in experiment [3] (setting [14]), 42.3%; in experiment [3] (setting [15]), 73.2%.
Consider `COc1ccc(N(CC(=O)Nc2ccc(C(C)=O)cc2)S(=O)(=O)c2ccccc2)cc1Cl` [compound 539430], for which the activation at […] came to 21.3% in experiment [1] (setting [10]); 21.4% in experiment [1] (setting [11]); 5.62% in experiment [2] (setting [12]); 10.4% in experiment [2] (setting [13]); 38.8% in experiment [3] (setting [14]); 103% in experiment [3] (setting [15]).
Consider `O=C(CN(c1ccccn1)S(=O)(=O)c1ccccc1)Nc1ccccc1` [compound 543512], for which the activation at […] was 36.8% in experiment [1] (setting [10]); 79.6% in experiment [1] (setting [11]); 18.1% in experiment [2] (setting [12]); 8.33% in experiment [2] (setting [13]); -4.56% in experiment [3] (setting [14]); -4.26% in experiment [3] (setting [15]).
Turning to `COc1ccc(S(=O)(=O)N(CC(=O)Nc2ccc(Cl)cc2Cl)c2ccccc2)cc1` [compound 543716], the activation at […] in experiment [1] (setting [10]) was 4.2%; in experiment [1] (setting [11]), -0.14%; in experiment [2] (setting [12]), 3.26%; in experiment [2] (setting [13]), -2.08%; in experiment [3] (setting [14]), -8.04%; in experiment [3] (setting [15]), -8.6%.
For the compound `COc1ccc(N(CC(=O)Nc2ccc(C(=O)O)cc2)S(=O)(=O)c2ccccc2)cc1` [compound 742790], the activation at […] is 13.8% in experiment [1] (setting [10]); 23.1% in experiment [1] (setting [11]); 12.8% in experiment [2] (setting [12]); 17.3% in experiment [2] (setting [13]); 5.94% in experiment [3] (setting [14]); 34.4% in experiment [3] (setting [15]).
Take `CCOc1ccccc1N(CC(=O)Nc1ccccc1Br)S(=O)(=O)c1ccc(C)cc1` [compound 771074]: the activation at […] is 13.5% in experiment [1] (setting [10]); 24.7% in experiment [1] (setting [11]); 20.7% in experiment [2] (setting [12]); 20.6% in experiment [2] (setting [13]); 23% in experiment [3] (setting [14]); 39.5% in experiment [3] (setting [15]).

(Values after patent US9790233B2, “Compositions and methods of modulating 15-PGDH activity” (CASE WESTERN RESERVE UNIVERSITY, priority 2012, dated 2017).)
